According to PMC4460250, “Systems Pharmacology Dissecting Holistic Medicine for Treatment of Complex Diseases: An Example Using Cardiocerebrovascular Diseases Treated by TCM” (Evidence-based Complementary and Alternative Medicine : eCAM, 2015):

Experiments:
[1] = in vivo
[2] = in vivo; cited from earlier work

Structure (SMILES)	Class(High: HIA value ≥0.7; Low: HIA value < 0.7) [1]	HIA(Human Intestinal Absorption) [2]
Cc1ncsc1CCCl [Clomethiazole]	High (key: High: HIA value ≥0.7; Low: HIA value < 0.7)	0.95
O=C1CN=C(c2ccccc2Cl)c2cc([N+](=O)[O-])ccc2N1 [Clonazepam]	High (key: High: HIA value ≥0.7; Low: HIA value < 0.7)	0.8
COC(=O)[C@H](c1ccccc1Cl)N1CCc2sccc2C1 [Clopidogrel(S)]	Low (key: High: HIA value ≥0.7; Low: HIA value < 0.7)	0.5
COc1ccc2c3c1O[C@H]1[C@@H](O)C=C[C@H]4[C@@H](C2)N(C)CC[C@@]341 [Codeine]	High (key: High: HIA value ≥0.7; Low: HIA value < 0.7)	0.93
CN1C(=O)CC[C@H]1c1cccnc1 [Cotinine(S)]	High (key: High: HIA value ≥0.7; Low: HIA value < 0.7)	0.97
NS(=O)(=O)c1cc2c(cc1Cl)N[C@@H](CC1CCCC1)NS2(=O)=O [Cyclopenthiazide(R)]	High (key: High: HIA value ≥0.7; Low: HIA value < 0.7)	1
NS(=O)(=O)c1cc2c(cc1Cl)N[C@H](CC1CCCC1)NS2(=O)=O [Cyclopenthiazide(S)]	High (key: High: HIA value ≥0.7; Low: HIA value < 0.7)	1
COc1cccc2c1C(=O)c1c(O)c3c(c(O)c1C2=O)C[C@@](O)(C(C)=O)C[C@@H]3O[C@H]1C[C@H](N)[C@H](O)[C@H](C)O1 [Daunorubicin]	Low (key: High: HIA value ≥0.7; Low: HIA value < 0.7)	0.1
CCCC(CCC)CCC[C@@H]1COCCN1CCO [Delmopinol(R)]	High (key: High: HIA value ≥0.7; Low: HIA value < 0.7)	0.95
CCCC(CCC)CCC[C@H]1COCCN1CCO [Delmopinol(S)]	High (key: High: HIA value ≥0.7; Low: HIA value < 0.7)	0.95
C[C@H](CN1CCOCC1)C(C(=O)N1CCCC1)(c1ccccc1)c1ccccc1 [Dextromoramide]	High (key: High: HIA value ≥0.7; Low: HIA value < 0.7)	1
CC(=O)Oc1ccc2c3c1O[C@H]1[C@@H](OC(C)=O)C=C[C@H]4[C@@H](C2)N(C)CC[C@@]341 [Diacetylmorphine]	High (key: High: HIA value ≥0.7; Low: HIA value < 0.7)	1
CCN(CC)[C@H](C)C(=O)c1ccccc1 [Diethylpropion(R)]	High (key: High: HIA value ≥0.7; Low: HIA value < 0.7)	0.95
CCN(CC)[C@@H](C)C(=O)c1ccccc1 [Diethylpropion(S)]	High (key: High: HIA value ≥0.7; Low: HIA value < 0.7)	0.95
COc1ccc2c3c1O[C@H]1[C@@H](O)CC[C@H]4[C@@H](C2)N(C)CC[C@@]341 [Dihydrocodeine]	High (key: High: HIA value ≥0.7; Low: HIA value < 0.7)	0.88
COc1cc2nc(N3CCN(C(=O)[C@H]4COc5ccccc5O4)CC3)nc(N)c2cc1OC [Doxazosin(R)]	High (key: High: HIA value ≥0.7; Low: HIA value < 0.7)	1
COc1cc2nc(N3CCN(C(=O)[C@@H]4COc5ccccc5O4)CC3)nc(N)c2cc1OC [Doxazosin(S)]	High (key: High: HIA value ≥0.7; Low: HIA value < 0.7)	1
O=C(O)CN(CCN(CC(=O)O)CC(=O)O)CC(=O)O [Edetic_acid]	Low (key: High: HIA value ≥0.7; Low: HIA value < 0.7)	0.05
NCCC[C@@](N)(C(=O)O)C(F)F [Eflornithine(R)]	Low (key: High: HIA value ≥0.7; Low: HIA value < 0.7)	0.55
NCCC[C@](N)(C(=O)O)C(F)F [Eflornithine(S)]	Low (key: High: HIA value ≥0.7; Low: HIA value < 0.7)	0.55
C[C@H](N[C@@H](CCc1ccccc1)C(=O)O)C(=O)N1CCC[C@H]1C(=O)O [Enalaprilat]	Low (key: High: HIA value ≥0.7; Low: HIA value < 0.7)	0.25
CN1C[C@H](C(=O)N[C@]2(C)O[C@@]3(O)[C@@H]4CCCN4C(=O)[C@H](Cc4ccccc4)N3C2=O)C=C2c3cccc4[nH]cc(c34)C[C@H]21 [Ergotamine]	High (key: High: HIA value ≥0.7; Low: HIA value < 0.7)	1
C[C@]12CC[C@@H]3c4ccc(OC(=O)N(CCCl)CCCl)cc4CC[C@H]3[C@@H]1CC[C@@H]2O [Estramustine]	High (key: High: HIA value ≥0.7; Low: HIA value < 0.7)	0.75
